Literature values as cited in patent US12661368B2, “Maribavir isomers, compositions, methods of making and methods of using” (Takeda Pharmaceutical Company Limited, priority 2010, dated 2026).

How the values were obtained:
[1] = test system: cytomegalovirus (CMV); conditions: Phase 2, 200 Study
[2] = test system: cytomegalovirus (CMV); conditions: Phase 3, 300 Study, allogeneic SCT patients, prophylaxis

CC(C)Nc1nc2cc(Cl)c(Cl)cc2n1[C@H]1O[C@@H](CO)[C@H](O)[C@@H]1O [maribavir, 5,6-dichloro-2-(isopropylamino)-1-(β-L-ribofuranosyl)-1H-benzimidazole]
tolerability profile ([1]; administration for up to 12 weeks, SCT patients): favorable tolerability profile | rate of reactivation of CMV in recipients of allogeneic stem cell (bone marrow) transplants ([1]; prophylaxis, fasted dosing protocol, preliminary results): significant reduction | key secondary endpoints of the study [2]: failed to meet its key secondary endpoints | reducing the rate of CMV disease, maribavir versus placebo (primary analysis) ([2]; dosing fasted or fed): no statistically significant difference
